From patent EP0554004A2, “Cephem compounds and antibacterial agents” (KATAYAMA SEIYAKUSYO CO. Ltd., priority 1992, dated 1993)

Key:
clinically isolated MRSA [1] = assay: Antibacterial potency against clinically isolated MRSA (Test Example 2); format: cell-based, methicillin-resistant Staphylococcus aureus; conditions: Staphylococcus aureus, 52 strains of clinically isolated MRSA
Protocol: A test on the antibacterial potency against clinically isolated MRSA was conducted in the following way.
(§1) 52 strains of clinically isolated MRSA were used, and MIC was determined for each of the strains according to the standard method of the Japan Chemotherapical Society as in Test Example 1. The minimum growth inhibitory concentration which inhibited growth of 50% of the strains tested was expressed as MIC50 (µg/ml), and the minimum growth inhibitory concentration which inhibited growth of 90% of the strains was expressed as MIC90 (µg/ml).
In this test, FMOX (flomoxef), IPM/CS (imipenem/cilastatin), CMZ (cefmetazole), MINO (minocycline) and DMPPC (methicillin) were used as control agents.

[2] = system: Bacillus subtilis ATCC 6633; assay: MIC against standard strains (Test Example 1); format: cell-based; conditions: ATCC6633, Muller-Hinton agar, 37°C overnight
Protocol: (§2) By using each test strain cultured overnight at 37°C in a Muller-Hinton broth, there was prepared a bacterial solution with a bacterial cell population of 1 x 10^6 CFU/mi of the same bouillon. The bacterial solution was inoculated into the Muller-Hinton agar media each containing respectively one test agent and, after overnight incubation at 37°C, the minimum concentration that inhibited growth of the bacteria was determined and shown as MIC also in Table 1.
(§3) Staphylococcus aureus 167 and Staphylococcus aureus 195 used in the test were MRSA. CTM (cefotiam) and FMOX (flomoxef) were used as control agents.

[3] = system: Staphylococcus aureus 209P JC-1; assay: MIC against standard strains (Test Example 1); format: cell-based; conditions: Muller-Hinton agar, 37°C overnight
Protocol: as §2, §3

[4] = system: Micrococcus luteus ATCC 9341; assay: MIC against standard strains (Test Example 1); format: cell-based; conditions: ATCC9341, Muller-Hinton agar, 37°C overnight
Protocol: as §2, §3

[5] = system: Enterobacter cloacae ATCC 13407; assay: MIC against standard strains (Test Example 1); format: cell-based; conditions: ATCC13407, Muller-Hinton agar, 37°C overnight
Protocol: as §2, §3

[6] = system: Klebsiella pneumoniae IFO 3317; assay: MIC against standard strains (Test Example 1); format: cell-based; conditions: IFO3317, Muller-Hinton agar, 37°C overnight
Protocol: as §2, §3

[7] = system: Morganella morganii IFO 3848; assay: MIC against standard strains (Test Example 1); format: cell-based; conditions: IFO3848, Muller-Hinton agar, 37°C overnight
Protocol: as §2, §3

[8] = system: Staphylococcus aureus Smith; assay: MIC against standard strains (Test Example 1); format: cell-based; conditions: Muller-Hinton agar, 37°C overnight
Protocol: as §2, §3

[9] = system: Escherichia coli CSH2 (RE45); assay: MIC against standard strains (Test Example 1); format: cell-based
Protocol: as §2, §3

[10] = system: Klebsiella pneumoniae No. 42; assay: MIC against standard strains (Test Example 1); format: cell-based; conditions: Muller-Hinton agar, 37°C overnight
Protocol: as §2, §3

[11] = system: Proteus mirabilis IFO 3849; assay: MIC against standard strains (Test Example 1); format: cell-based; conditions: IFO3849, Muller-Hinton agar, 37°C overnight
Protocol: as §2, §3

[12] = system: Psuedomonas aeruginosa IFO 3445; assay: MIC against standard strains (Test Example 1); format: cell-based; conditions: Muller-Hinton agar, 37°C overnight
Protocol: as §2, §3

[13] = system: Pseudomonas aeruginosa NCTC 10490; assay: MIC against standard strains (Test Example 1); format: cell-based; conditions: NCTC10490, Muller-Hinton agar, 37°C overnight
Protocol: as §2, §3

[14] = system: Escherichia coli CSH2 (RK1); assay: MIC against standard strains (Test Example 1); format: cell-based
Protocol: as §2, §3

[15] = system: Staphylococcus aureus 195; assay: MIC against standard strains (Test Example 1); format: cell-based; conditions: Staphylococcus aureus 195 (MRSA); Muller-Hinton agar, 37°C overnight
Protocol: as §2, §3

[16] = system: Staphylococcus epidermidis IAM 1296; assay: MIC against standard strains (Test Example 1); format: cell-based; conditions: IAM1296, Muller-Hinton agar, 37°C overnight
Protocol: as §2, §3

[17] = system: Citrobacter freundii ATCC 8090; assay: MIC against standard strains (Test Example 1); format: cell-based; conditions: ATCC8090, Muller-Hinton agar, 37°C overnight
Protocol: as §2, §3

[18] = system: Staphylococcus aureus 167; assay: MIC against standard strains (Test Example 1); format: cell-based; conditions: Staphylococcus aureus 167 (MRSA); Muller-Hinton agar, 37°C overnight
Protocol: as §2, §3

[19] = system: Escherichia coli NIHJ JC-2; assay: MIC against standard strains (Test Example 1); format: cell-based; conditions: NIHJJC2, Muller-Hinton agar, 37°C overnight
Protocol: as §2, §3

[20] = system: Serratia marcescens IAM 1184; assay: MIC against standard strains (Test Example 1); format: cell-based; conditions: IAM1184, Muller-Hinton agar, 37°C overnight
Protocol: as §2, §3

Proteus vulgalis OX-19 = assay: MIC against standard strains (Test Example 1); format: cell-based; conditions: Muller-Hinton agar, 37°C overnight
Protocol: as §2, §3

clinically isolated MRSA [21] = assay: Antibacterial potency against clinically isolated MRSA (Test Example 4); format: cell-based, methicillin-resistant Staphylococcus aureus; conditions: Staphylococcus aureus, 52 strains of clinically isolated MRSA
Protocol: as §1
MIC 50 and MIC 90 were determined for each of the 52 strains of clinically isolated MRSA according to the same method as used in Test Example 2.
VCM (vancomycin) was used as control agent.

B. subtilis ATCC6633 = assay: MIC against standard strains (Test Example 3); format: cell-based; conditions: Bacillus subtilis; B. subtilis ATCC6633 (Test Example 3); read-out: MIC
Protocol: as §2
(§4) The minimum growth inhibitory concentration was determined for each of the 21 standard strains shown in Table 3, according to the same method as used in Test Example 1.
(§5) In the test, FMOX (flomoxef), CTM (cefotiam) and CEZ (cefazolin) were used as control agents.

A. calcoaceticos T59 = assay: MIC against standard strains (Test Example 3); format: cell-based; conditions: A. calcoaceticos T59 (Test Example 3); read-out: MIC
Protocol: as §2, §4, §5

E. cloacae ATCC13407 = assay: MIC against standard strains (Test Example 3); format: cell-based; conditions: Enterobacter cloacae; E. cloacae ATCC13407 (Test Example 3); read-out: MIC
Protocol: as §2, §4, §5

E. coli CSH2 (RE45) = assay: MIC against standard strains (Test Example 3); format: cell-based; conditions: Escherichia coli
Protocol: as §2, §4, §5

S. aureus 167 = assay: MIC against standard strains (Test Example 3); format: cell-based; conditions: Staphylococcus aureus; S. aureus 167 (MRSA) (Test Example 3); read-out: MIC
Protocol: as §2, §4, §5

E. coli CSH2 (RK1) = assay: MIC against standard strains (Test Example 3); format: cell-based; conditions: Escherichia coli
Protocol: as §2, §4, §5

P. aeruginosa NCTC10490 = assay: MIC against standard strains (Test Example 3); format: cell-based; conditions: Pseudomonas aeruginosa; P. aeruginosa NCTC10490 (Test Example 3); read-out: MIC
Protocol: as §2, §4, §5

S. marcescens IAM1184 = assay: MIC against standard strains (Test Example 3); format: cell-based; conditions: Serratia marcescens; S. marcescens IAM1184 (Test Example 3); read-out: MIC
Protocol: as §2, §4, §5

P. mirabilis IFO3849 = assay: MIC against standard strains (Test Example 3); format: cell-based; conditions: Proteus mirabilis; P. mirabilis IFO3849 (Test Example 3); read-out: MIC
Protocol: as §2, §4, §5

K. pneumoniae IFO3317 = assay: MIC against standard strains (Test Example 3); format: cell-based; conditions: Klebsiella pneumoniae; K. pneumoniae IFO3317 (Test Example 3); read-out: MIC
Protocol: as §2, §4, §5

K. pneumoniae No. 42 = assay: MIC against standard strains (Test Example 3); format: cell-based; conditions: Klebsiella pneumoniae; K. pneumoniae No. 42 (Test Example 3); read-out: MIC
Protocol: as §2, §4, §5

A. faecalis ATCC3750 = assay: MIC against standard strains (Test Example 3); format: cell-based; conditions: Alcaligenes faecalis; A. faecalis ATCC3750 (Test Example 3); read-out: MIC
Protocol: as §2, §4, §5

P. vulugaris OX-19 = assay: MIC against standard strains (Test Example 3); format: cell-based; conditions: P. vulugaris OX-19 (Test Example 3); read-out: MIC
Protocol: as §2, §4, §5

S. aureus 209p JC-1 = assay: MIC against standard strains (Test Example 3); format: cell-based; conditions: Staphylococcus aureus; S. aureus 209p JC-1 (Test Example 3); read-out: MIC
Protocol: as §2, §4, §5

C. freundii ATCC8090 = assay: MIC against standard strains (Test Example 3); format: cell-based; conditions: Citrobacter freundii; C. freundii ATCC8090 (Test Example 3); read-out: MIC
Protocol: as §2, §4, §5

E. coli NIHJ JC-2 = assay: MIC against standard strains (Test Example 3); format: cell-based; conditions: Escherichia coli, NIHJJC2; E. coli NIHJ JC-2 (Test Example 3); read-out: MIC
Protocol: as §2, §4, §5

M. luteus ATCC 9341 = assay: MIC against standard strains (Test Example 3); format: cell-based; conditions: Micrococcus luteus, ATCC9341; M. luteus ATCC 9341 (Test Example 3); read-out: MIC
Protocol: as §2, §4, §5

S. aureus 195 = assay: MIC against standard strains (Test Example 3); format: cell-based; conditions: Staphylococcus aureus; S. aureus 195 (MRSA) (Test Example 3); read-out: MIC
Protocol: as §2, §4, §5

M. Morganii IFO3848 = assay: MIC against standard strains (Test Example 3); format: cell-based; conditions: Morganella morganii; M. Morganii IFO3848 (Test Example 3); read-out: MIC
Protocol: as §2, §4, §5

S. aureus Smith = assay: MIC against standard strains (Test Example 3); format: cell-based; conditions: Staphylococcus aureus; S. aureus Smith (Test Example 3); read-out: MIC
Protocol: as §2, §4, §5

S. epidemidis IAM1296 = assay: MIC against standard strains (Test Example 3); format: cell-based; conditions: S. epidemidis IAM1296 (Test Example 3); read-out: MIC
Protocol: as §2, §4, §5

## NC(=O)c1ccc[n+](CC2=C(C(=O)[O-])N3C(=O)[C@@H](NC(=O)/C(=N\O)c4csc(N)n4)[C@H]3SC2)c1 [Compound (1), 7β-[2-(2-aminothiazol-4-yl)-2-syn-hydroxyiminoacetamido]-3-[(3-carbamoyl-1-pyridinio)methyl]-3-cephem-4-carboxylic acid chloride]
Clinically isolated MRSA [1]; concentration inhibiting growth of 50% of the strains (Test Example 2)
  MIC50: 3.79 µg/mL
Clinically isolated MRSA [1]; concentration inhibiting growth of 90% of the strains (Test Example 2)
  MIC90: 11.4 µg/mL
[2]
  MIC: 0.39 µg/mL
[3]
  MIC: 0.2 µg/mL
[4]
  MIC: 0.05 µg/mL
[5]
  MIC: 0.78 µg/mL
[6]
  MIC: 0.2 µg/mL
[7]
  MIC: 0.39 µg/mL
[8]
  MIC: 0.39 µg/mL
[9]
  MIC: 0.39 µg/mL
[10]
  MIC: 0.78 µg/mL
[11]
  MIC: 0.39 µg/mL
[12]
  MIC: 25 µg/mL
[13]
  MIC: 3.13 µg/mL
[14]
  MIC: 0.78 µg/mL
[15]
  MIC: 3.13 µg/mL
[16]
  MIC: 0.1 µg/mL
[17]
  MIC: 0.39 µg/mL
[18]
  MIC: 6.25 µg/mL
[19]
  MIC: 0.39 µg/mL
[20]
  MIC: 0.2 µg/mL
Proteus vulgalis OX-19
  MIC: 0.78 µg/mL

## Cc1nc(-c2cc[n+](CC3=C(C(=O)[O-])N4C(=O)[C@@H](NC(=O)/C(=N\O)c5csc(N)n5)[C@H]4SC3)cc2)cs1 [Compound (13), 7β-[2-(2-aminothiazol-4-yl)-2-syn-hydroxyiminoacetamido]-3-[[4-(2-methylthiazol-4-yl)-1-pyridinio]methyl]-3-cephem-4-carboxylic acid chloride]
Clinically isolated MRSA [21]; concentration inhibiting growth of 50% of the strains (Test Example 4), read-out: MIC50
  MIC50: 2.21 µg/mL
Clinically isolated MRSA [21]; concentration inhibiting growth of 90% of the strains (Test Example 4), read-out: MIC90
  MIC90: 5.51 µg/mL
B. subtilis ATCC6633
  MIC: 0.2 µg/mL
A. calcoaceticos T59
  MIC: 50 µg/mL
E. cloacae ATCC13407
  MIC: 0.78 µg/mL
E. coli CSH2 (RE45)
  MIC: 0.2 µg/mL
S. aureus 167
  MIC: 6.25 µg/mL
E. coli CSH2 (RK1)
  MIC: 0.2 µg/mL
P. aeruginosa NCTC10490
  MIC: 12.5 µg/mL
S. marcescens IAM1184
  MIC: 0.39 µg/mL
P. mirabilis IFO3849
  MIC: 0.39 µg/mL
K. pneumoniae IFO3317
  MIC: 0.1 µg/mL
K. pneumoniae No. 42
  MIC: 0.78 µg/mL
A. faecalis ATCC3750
  MIC: 1.56 µg/mL
P. vulugaris OX-19
  MIC: 0.2 µg/mL
S. aureus 209p JC-1
  MIC: 0.2 µg/mL
C. freundii ATCC8090
  MIC: 0.2 µg/mL
E. coli NIHJ JC-2
  MIC: 0.2 µg/mL
M. luteus ATCC 9341
  MIC: 0.05 µg/mL
S. aureus 195
  MIC: 3.13 µg/mL
M. Morganii IFO3848
  MIC: 0.05 µg/mL
S. aureus Smith
  MIC: 0.39 µg/mL
S. epidemidis IAM1296
  MIC: 0.2 µg/mL
